Assay results as given in patent US20200009143A1, “REPURPOSING OF CANCER DRUGS FOR TREATMENT OF MYCOBACTERIUM” (STC.UNM, priority 2016, published 2020).

Legend:
RAW 264.7 macrophages = conditions: PARP inhibition; cited from earlier work
PARP = PARP (Mus musculus, UniProt P11103); test: whole cell PARP inhibition in UV-activated RAW 264.7 macrophages, PARP activity by ELISA; assay type: cell-based
[1] = human, in vivo; cited from earlier work
tuberculosis = conditions: systemically delivered, despite significant plasma levels; cited from earlier work
[2] = in vivo; cited from earlier work

Sequence of PARP (P11103 2-1013): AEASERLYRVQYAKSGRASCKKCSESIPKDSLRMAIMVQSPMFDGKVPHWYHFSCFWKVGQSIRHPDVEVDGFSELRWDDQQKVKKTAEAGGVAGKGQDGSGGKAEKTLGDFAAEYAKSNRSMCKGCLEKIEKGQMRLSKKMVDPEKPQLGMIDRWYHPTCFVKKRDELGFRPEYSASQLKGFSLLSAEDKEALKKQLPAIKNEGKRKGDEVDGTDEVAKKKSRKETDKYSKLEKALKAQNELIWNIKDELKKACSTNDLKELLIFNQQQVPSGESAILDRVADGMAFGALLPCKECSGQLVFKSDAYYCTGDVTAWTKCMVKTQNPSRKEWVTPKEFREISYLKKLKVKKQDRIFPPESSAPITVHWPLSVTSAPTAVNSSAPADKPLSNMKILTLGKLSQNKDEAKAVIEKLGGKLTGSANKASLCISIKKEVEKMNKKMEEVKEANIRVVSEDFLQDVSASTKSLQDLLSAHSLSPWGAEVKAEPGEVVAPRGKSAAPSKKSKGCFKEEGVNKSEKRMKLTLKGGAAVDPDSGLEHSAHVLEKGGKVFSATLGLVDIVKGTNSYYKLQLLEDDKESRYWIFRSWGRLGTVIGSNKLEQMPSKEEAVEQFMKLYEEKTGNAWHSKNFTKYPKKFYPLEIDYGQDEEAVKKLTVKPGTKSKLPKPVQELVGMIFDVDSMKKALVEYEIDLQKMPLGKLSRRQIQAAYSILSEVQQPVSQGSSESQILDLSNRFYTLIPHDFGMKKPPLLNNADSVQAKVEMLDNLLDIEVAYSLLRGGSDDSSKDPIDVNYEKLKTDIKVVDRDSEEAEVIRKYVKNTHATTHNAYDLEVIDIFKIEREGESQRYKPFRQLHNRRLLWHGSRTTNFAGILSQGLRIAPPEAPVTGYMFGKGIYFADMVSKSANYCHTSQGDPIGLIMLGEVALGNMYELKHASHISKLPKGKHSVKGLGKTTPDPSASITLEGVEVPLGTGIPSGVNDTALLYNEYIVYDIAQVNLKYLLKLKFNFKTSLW

SMILES	inhibition of mycobacteria-induced macrophage necrosis (RAW 264.7 macrophages)	PARP inhibition (in words) (PARP; at levels readily achieved during conventional PZA therapy)	ratio of plasma Cmax/IC50 (PARP; known peak plasma level in TB patients over whole-cell PARP IC50)	steady state peak plasma level [1]	efficacy in vivo (tuberculosis)	distribution in human granulomas [2]
NC(=O)c1cccc(N)c1 [3-aminobenzamide]	strongly inhibited	–	–	–	–	–
O=C(O)c1cnccn1 [POA, pyrazinoic acid]	–	potent inhibitor	20	300 µM	ineffective	wide distribution
NC(=O)c1cnccn1 [PZA, pyrazinamide]	–	–	–	about 500 μM	–	–
